Patent US20040072287A1 (priority 2003, published 2004)
Several values for one entry are separate records, joined by “and”; a condition that tells them apart may be missing. Equal entries are not always repeated. Ends that are not written are not given here.

Columns and labels:
GOTO cells = assay: aequorin bioluminescence assay in GOTO cells without exogenous MCHR1 (aequorin only, or no plasmids); assay type: cell-based, human
Protocol: The aequorin bioluminescence assay can be used to measure the activity of G protein-coupled receptors that couple through the Ga protein subunit family consisting of Gq, G11, and Gi leading to the activation of phospholipase C, mobilization of intracellular calcium and activation of protein kinase C. Measurement of functional MCHR1 expression in GOTO cells transiently expressing aequorin was performed using a Luminoskan RT luminometer (Labsystems Inc., Gaithersburg, Md.) controlled by custom software written for a Macintosh PowerPC 6100.
GOTO cells (1.2×10^7 cells plated 18 hours before transfection in a T75 flask) were transfected with human MCHR1 plasmid DNA and aequorin cDNA using the Lipofectamine 2000 procedure (Life Technologies, Gaithersburg, Md.). Human MCHR1 plasmid DNA contained the open reading frame cDNA (SEQ. ID. NO. 2) encoding the human MCHR1 receptor inserted in the mammalian expression vector pcDNA-3 (Invitrogen, Carlsbad, Calif.). An aequorin expressing plasmid contained the cDNA for aequorin (Button, et al., 1993. Cell Calcium 14, 663-671), inserted in pcDNA-3. Following approximately 40 hours of expression the apo-aequorin in the cells was charged for 1 hour with coelenterazine (10 μM) under reducing conditions (300 μM reduced glutathione) in ECB buffer (140 mM NaCl, 20 mM KCl, 20 mM HEPES-NaOH [pH=7.4], 5 mM glucose, 1 mM MgCl2, 1 mM CaCl2, 0.1 mg/ml bovine serum albumin). The cells were harvested, washed once in ECB medium and resuspended to 500,000 cells/ml or 1,000,000cells/ml.
Lysophosphatidic acid triggers native edg receptors coupled to PLC activation present on GOTO cells. The integrated light emission was recorded over 30 seconds, in 0.5 second units. 20 μL of lysis buffer (0.1% final Triton X-100 concentration) was then injected and the integrated light emission recorded over 10 seconds, in 0.5 second units. The “fractional response” values for each well were calculated by taking the ratio of the integrated response to the initial challenge to the total integrated luminescence including the Triton X-100 lysis response.

[1] = biological target: human melanin-concentrating hormone receptor 1 (MCHR1) (human) (UniProt Q99705); assay: cell-based or functional assay
human MCHR1 = biological target: T1, human MCHR1 (Homo sapiens, UniProt Q99705); assay: aequorin bioluminescence assay in GOTO cells co-transfected with aequorin and human MCHR1; assay type: cell-based; settings: 1 μM; GOTO cells transfected with AEQ + MCHR1
T1 construct: expressed in transfected cells; host or cells: GOTO human neuroblastoma cells, transient co-transfection with aequorin cDNA (pcDNA-3, Lipofectamine 2000)
Protocol: 20 μL of lysis buffer (0.1% final Triton X-100 concentration) was then injected and the integrated light emission recorded over 10 seconds, in 0.5 second units. The “fractional response” values for each well were calculated by taking the ratio of the integrated response to the initial challenge to the total integrated luminescence including the Triton X-100 lysis response.

[2] = 1 μM, GOTO cells, No Aeq (no aequorin and no MCHR1 plasmid)

Sequence of human melanin-concentrating hormone receptor 1 (MCHR1) (human) (Q99705 whole entry): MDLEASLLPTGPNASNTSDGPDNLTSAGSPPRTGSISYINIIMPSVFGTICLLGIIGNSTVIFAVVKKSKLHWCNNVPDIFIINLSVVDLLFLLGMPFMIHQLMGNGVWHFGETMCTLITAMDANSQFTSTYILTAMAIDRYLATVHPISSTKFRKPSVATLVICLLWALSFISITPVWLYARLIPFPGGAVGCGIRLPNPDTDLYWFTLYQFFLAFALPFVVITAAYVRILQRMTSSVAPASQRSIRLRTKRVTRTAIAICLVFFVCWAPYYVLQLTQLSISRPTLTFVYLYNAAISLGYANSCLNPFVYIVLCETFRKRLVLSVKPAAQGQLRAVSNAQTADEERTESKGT
T1 sequence (Q99705 whole entry): as above

Row | aequorin bioluminescence (cps), GOTO cells transfected with AEQ + MCHR1, MCH (1 µM) [1] | bioluminescence (human MCHR1) | Substance | bioluminescence (GOTO cells; [2]) | signal over background (in words) (GOTO cells; GOTO cells, absence of exogenous MCHR1, background = buffer injection only (ECB)) | bioluminescence (GOTO cells; 1 μM, GOTO cells transfected with AEQ only (no MCHR1 plasmid)) | control response, calcium mobilization via edg receptor (in words) (GOTO cells; 1 μM, GOTO cells, native edg receptor)
1 | – | – | Melanin-concentrating hormone (DFDMLRCMLGRVYRPCWQV; ends and bridges not checked; also: cyclic, ring closure not given here) [MCH] | 0 cps | no signal over background | – | –
2 | 26.4 cps and 26.6 cps | – | Melanin-concentrating hormone (MCH) (from UniProt P20382 147-165) (peptide) | – | – | – | –
3 | – | 6.83 cps | lysophosphatidic acid [LPA] | 0 cps | – | 5.24 cps | control response evoked
